US6391917B1, “Dialkyl ureas as calcitonin mimetics” (ZymoGenetics, Inc., priority 1998, dated 2002)

What was measured:
[1] = biological target: T1, Human calcitonin receptor (Homo sapiens, UniProt P30988); experiment: CRE-luciferase assay for calcitonin mimetics (Hollex-1); format: cell-based
T1 construct: expressed in transfected cells; host or cells: BHK-570 (Hollex-1)
T1 sequence (P30988 25-474): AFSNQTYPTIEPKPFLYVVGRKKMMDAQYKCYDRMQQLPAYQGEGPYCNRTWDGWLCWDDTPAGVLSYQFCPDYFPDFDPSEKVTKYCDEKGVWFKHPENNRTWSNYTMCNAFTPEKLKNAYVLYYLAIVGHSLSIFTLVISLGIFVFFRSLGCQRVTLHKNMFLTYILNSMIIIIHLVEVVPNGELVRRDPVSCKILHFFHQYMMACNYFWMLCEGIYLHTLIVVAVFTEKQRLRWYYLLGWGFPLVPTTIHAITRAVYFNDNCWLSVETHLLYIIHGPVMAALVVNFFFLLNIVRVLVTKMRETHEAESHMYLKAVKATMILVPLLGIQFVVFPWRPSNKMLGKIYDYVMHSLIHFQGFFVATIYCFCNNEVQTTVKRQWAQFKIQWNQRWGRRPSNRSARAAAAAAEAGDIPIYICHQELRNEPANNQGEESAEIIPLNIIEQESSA
Procedure: CRE-Luciferase Assay Method for Calcitonin Mimetics
Human calcitonin receptor-positive and receptor-negative BHK-570 (Baby Hamster Kidney) cell lines were maintained by serial passage in growth medium (DMEM supplemented with 10% heat-inactivated fetal calf serum (HI-FCS), 2 mM L-glutamine, 1 mM sodium pyruvate, 250 nM MTX, and 1 mg/mL G418). On the day prior to assay, cells were trypsinized, adjusted to 2.5×10^5 cells/ml in growth medium, plated in opaque white Dynatech Microlite microtiter tissue culture plates at 50 μL/well, and grown overnight to confluence (37° C., 5% CO2 atmosphere).
Test substances were prepared in DMSO or 10% DMF at 100 times the final desired assay concentration. […] Controls were included on each plate: untreated wells (basal), […], and 100 nM human calcitonin. DMSO or DMF was included in control wells at a concentration equal to that in test samples (not to exceed a final assay concentration of 2% DMSO or 0.5% DMF, with a preferred maximum of 1% DMSO or 0.1% DMF).
Plates were incubated for 3 to 8 hours (4 hours preferred) at 37° C. in an atmosphere of 5% CO2. Following induction, luciferase activity was measured using a Promega luciferase assay kit (E1500) according to the assay kit protocol (Promega Corp., Madison, Wis.). Briefly, assay medium was removed and cells were washed once with phosphate buffered saline (PBS). After the wash, 25 μl of lysis buffer was added to each well, and the plates were incubated for 15 minutes at room temperature. Fifty microliters of Luciferase Assay Substrate (Promega, Corp.) was added to each well and the plates were transferred to a Labsystems Lumiscan microtiter luminometer (Labsystems Inc., Morton Grove, Ill.). The amount of luminescence (relative light units, RLU) was determined following a 0.1 second/well integration of signal. Basal (uninduced) luciferase signal was subtracted from all measurements, and the luciferase signal induced by test samples was expressed as a percentage of the signal in the calcitonin and forskolin controls. Specificity of the luciferase induction for calcitonin receptor-positive cell lines was determined by comparing the percent control values in the calcitonin receptor-positive line (Hollex-1) to those observed in the calcitonin receptor-negative cell line (KZ10-20-48/Zem 228) and the PTH receptor-positive cell line (KZ10-20-48/PTH-20) described below. Samples inducing a signal over the basal level were selected for further characterization, see Table 1 for examples.

[2] = test system: PTH-induced bone resorption in mouse calvariae; experiment: Calvarial assay: PTH-induced bone resorption, calcium release; format: cell-based; conditions: 1 nM PTH 1-34, 72 hours
Procedure: Calvaria from 4-day old neonatal CD-1 mice (pregnant mice received from Charles River Laboratories, Wilmington, Mass.) were trimmed with fine-tipped scissors to leave the parietal regions, including the sagittal suture. These trimmed bones were placed singly per well into 6-well cell culture cluster plates (Costar, Pleasanton, Calif.) with 1 ml/well of Dulbecco's […] Essential Medium, […] (DMEM, BioWhittaker, Walkersville, Md.) or Basal Eagle's Medium with Earle's salts (EMEM, Gibco/BRL, Grand Island, N.Y.) and 0.29 mg/ml L-glutamine, 1 mM sodium pyruvate, 15% heat-inactivated horse serum, and antibiotics (penicillin-G 50 μg/ml, streptomycin 50 μg/ml, and neomycin 100 μg/ml). Calvaria were rocked gently (RedRocker™, model PR50-115 V, Hoefer, San Francisco, Calif. or Labline Rocking Shaker, model 4635, Labline Instruments, Melrose Park, Ill.) at 37° C. in a 5% CO2 humidified incubator for 24 hours preincubation.
Following preincubation, medium was removed and replaced with 1.5 ml/well of growth medium containing 1 nM parathyroid hormone (PTH) 1-34 (Sigma) to stimulate bone resorption. For evaluation of the ability of calcitonin mimetics to inhibit PTH induced bone resorption, mimetic compounds in DMSO were added to the growth medium at concentrations ranging from 1-400 μg/ml (final assay concentration of DMSO less than or equal to 1%). In each experiment human calcitonin (0.02-2 nM, 0.2-2 nM preferred) was added to PTH treated bones as a positive control. […] All control wells contained a final assay concentration of DMSO equal to that present in calcitonin mimetic treated wells.
Five bones were included in each sample group. Bones were incubated for 72 hours following PTH addition to allow resorption of bone to occur. Observations were made of the general appearance, healthiness and number of cells. that migrate from the calvaria during the incubation as a possible indication of cell toxicity. Calvaria to be examined histologically were transferred to glass scintillation vials containing 10 ml of 10% neutral buffered formalin. […]

[3] = test system: osteoclasts in mouse calvariae; experiment: Calvaria histology (osteoclast number and size, toxicity); format: cell-based; conditions: mouse calvariae treated with PTH
Description: To confirm the findings in the calvarial bone resorption assay employing calcium release from culture mouse calvariae, selected bones were fixed in 10% neutral buffered formalin and demineralized in 5% formic acid with 5% formalin. The bones were dehydrated through an ascending series of ethanol concentrations, infiltrated in glycol methacrylate, and embedded using a JB-4 embedding kit (PolySciences, Warrington, Pa.) (Liu, et al., J. Bone Mineral Res. 5:973-82, 1990). When necessary, an alternative embedding method (paraffin embedding) was used to speed up the embedding process. Cross sections of calvariae cut at 5 μm were obtained and stained for tartrate-resistant acid phosphatase (TRAP) activity and counterstained with methyl green and thionin for cell morphology (Liu, et al., ibid.). Osteoclasts were identified by TRAP stain, multinucleation, large cell size, and irregular cell shape. The number of osteoclasts were counted from endocranial and ectocranial bone surfaces and expressed as number/mm perimeter. The size of all the osteoclasts counted was also measured using a Bone Morphometry program (Liu, et al., ibid.; Bain, et al., J. Bone Miner. Res. 8:435-42, 1993). […] This PTH-induced increase was suppressed by treatment with human calcitonin.
Calcitonin mimetic compounds were evaluated in a similar fashion for their ability to suppress PTH-induced increases in osteoclast number and size (Table 2). Cell toxicity (or death) was also evaluated by the appearance of pyknotic nuclei in a small number of bone cells. With an increased level of toxicity, a further increase in the number of these pyknotic nuclei, detachment of cells from bone surfaces, and losses of cytoplasmic stain and cell boundaries were observed. The osteocytic space also appeared empty.

human PTH receptor = biological target: T2, human PTH receptor (Homo sapiens, UniProt Q03431); experiment: CRE-luciferase induction in clone KZ10-20-48/PTH-20; format: cell-based
T2 construct: expressed in transfected cells; host or cells: BHK570 clone KZ10-20-48 (KZ10-20-48/PTH-20)
T2 sequence (Q03431 27-593): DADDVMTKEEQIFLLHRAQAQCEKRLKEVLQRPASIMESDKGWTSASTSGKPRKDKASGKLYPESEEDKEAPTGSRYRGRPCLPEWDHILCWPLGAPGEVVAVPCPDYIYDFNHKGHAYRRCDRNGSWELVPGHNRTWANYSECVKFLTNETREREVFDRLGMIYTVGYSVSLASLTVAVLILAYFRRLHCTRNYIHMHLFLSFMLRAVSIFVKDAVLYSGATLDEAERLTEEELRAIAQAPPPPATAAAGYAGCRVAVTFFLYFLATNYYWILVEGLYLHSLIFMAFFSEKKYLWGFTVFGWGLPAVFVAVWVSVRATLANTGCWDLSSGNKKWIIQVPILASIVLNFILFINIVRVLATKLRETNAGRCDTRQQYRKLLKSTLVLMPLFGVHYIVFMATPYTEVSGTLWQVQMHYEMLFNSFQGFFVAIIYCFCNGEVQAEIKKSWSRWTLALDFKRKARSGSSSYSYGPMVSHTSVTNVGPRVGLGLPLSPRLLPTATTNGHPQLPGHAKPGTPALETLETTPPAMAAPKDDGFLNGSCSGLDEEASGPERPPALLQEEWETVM
Description: Test substances that appear to specifically elevate luciferase expression in CT-R positive cells but not CT-R negative cells were subjected to an additional specificity check, i.e. their inability to activate other members of the G-protein coupled receptor family. The parathyroid hormone (PTH) receptor is another member of the G-protein coupled receptor family that transduces signal through adenylate cyclase mediated elevation of cAMP.

[4] = Induction of hypocalcemia in rats; format: in vivo; conditions: weanling rats, tail vein, 0.5, 2.5, 5, 50 and 100 ng/rat, serum calcium one hour later
Procedure: This assay is based on the in vivo acute effect of calcitonin on osteoclasts, which causes rapid retraction of osteoclasts from bone surface (typically within 30 minutes) and which results in decreased bone resorption. See Mills, et al., in Endocrinology 1971—Proceedings of the Third International SymDosium, Taylor (ed), Heinemann Medical, London, pp. 79-88 (1972) and Singer, et al., Clin. Endocrinol. 5(Supp):333s-40s, 1976. The assay method was modified from the method described by Sturtridge and Kumar, Lancet 545:725-6, 1968. For the assay of hypocalcemic activity, weanling male Holtzman Sprague-Dawley rats (22 days old) are infused with vehicle (PBS with 1 mM HCl and 0.1% BSA), calcitonin or calcitonin mimetics through the tail vein. One hour later, blood samples are collected by orbital sinus puncture to determine serum levels of calcium. A decrease in serum calcium indicates a hypocalcemic response. The hypocalcemic response is dose-dependent as determined using salmon calcitonin (0.5, 2.5, 5, 50 and 100 ng/rat) in this model. Inhibition of PTH-induced hypercalcemia in TPTX rats

Row | Compound | Luciferase induction (% of maximum luciferase induction produced by CT, 100 nM) ([1]; crude compound 6.25 μg/ml) [%] | Luciferase induction (% of maximum luciferase induction produced by CT, 100 nM) ([1]; crude compound 12.5 μg/ml) [%] | Luciferase induction (% of maximum luciferase induction produced by CT, 100 nM) ([1]; crude compound 25 μg/ml) [%] | Luciferase induction (% of maximum luciferase induction produced by CT, 100 nM) ([1]; crude compound 50 μg/ml) [%] | Release of PTH Induced Ca++ IC50 [2] [µg/mL] | Histology (bone destruction by PTH, Oc size and #) [3] | EC50 (human PTH receptor) [nM] | hypocalcemic response [4]
1 | C=CCNC(=O)[C@@H](Cc1ccc(F)cc1)NC(=O)Nc1cc(C(C)(C)C)ccc1C(C)(C)C [628-033] | 14.71 | 27.68 | 31.63 | 33.62 | 30 | Decreases in bone |  | 
2 | C=CCNC(=O)[C@@H](Cc1ccc2ccccc2c1)NC(=O)Nc1cc(C(C)(C)C)ccc1C(C)(C)C [628-035] | 34.84 | 43.25 | 46.43 | 52.27 | 23 | Decreases in bone |  | 
3 | CC(C)(C)c1ccc(C(C)(C)C)c(NC(=O)N[C@H](Cc2ccc3ccccc3c2)C(=O)NCc2ccc3ccccc3c2)c1 [628-055] | 24.81 | 35.48 | 43.3 | 48.69 | 14 | Decreases in bone |  | 
4 | C=C[C@@]1(C)CC(=O)[C@]2(O)[C@@]3(C)[C@@H](O)CCC(C)(C)[C@@H]3[C@H](O)[C@H](OC(C)=O)[C@@]2(C)O1 [forskolin] |  |  |  |  |  |  | 2000 | 
5 | salmon calcitonin |  |  |  |  |  |  |  | dose-dependent
